Measurements reported in patent US20230321043A1, “COMPOUNDS HAVING PSEUDOMONAS ANTI-BIOFILM PROPERTIES” (Københavns Universitet, priority 2020, published 2023).

Columns and labels:
[1] = tested on: total cellular c-di-GMP content of P. aeruginosa ΔwspF,Δpsl,Δpel; experiment: HPLC coupled tandem-MS quantification of c-di-GMP extracts; type: cell-based, Pseudomonas aeruginosa; conditions: 100 μM, 8 hours of growth; pmol c-di-GMP per mg protein, FIG. 1
Description: (§1) Specifically, a 20 h old culture of P. aeruginosa ΔwspF,Δpsl,Δpel (Rybtke et al 2012) was diluted 100 fold into 25 mL aliquots of ABtrace media supplemented with 0.5% Cas amino acids, 0.2% glucose, 60 μg/mL of gentamicin, 1 μM FeCl3, 0.05% DMSO and either 100 μM H6-335-P1, 100 μM H6-335 or no compound as reference control. Acting as a positive control for low total cellular c-di-GMP content, a 20 hour old culture of strain P. aeruginosa ΔwspF,Δpsl,Δpel carrying plasmid pYhj::Gm (encoding a constitutively expressed YhjH phosphodiesterase) was also diluted 100 fold into 25 mL of ABtrace medium supplemented with 0.5% Cas amino acids, 0.2% glucose, 60 μg/mL of gentamicin, 1 μM FeCl3 and 0.05% DMSO. The 4 cultures were placed on a rotary shaker and following 8 hours of growth at 37° C. and 200 RPM culture samples for c-di-GMP extraction and protein quantification was collected from each of the 4 different cultures. C-di-GMP extracts were prepared and subsequently quantified by HPLC coupled tandem-MS analysis as previously described (Groizeleau et al., 2016), while protein quantification was carried out using the Pierce 660 nm Protein Assay (Thermo Scientific Cat. No 22660) according to the manufacturer's protocol. […]

[2] = tested on: P. aeruginosa ΔwspFΔpelΔpsl; experiment: growth (OD600) of treated cultures; type: cell-based, Pseudomonas aeruginosa; conditions: 0 to 100 μM, 24 hours, FIG. 3B
Description: as §1

wt P. aeruginosa biofilm [3] = experiment: biofilm inhibition, microtiter tray, crystal violet staining; type: cell-based, Pseudomonas aeruginosa; conditions: 8 hours
Description: Briefly, using a microtiter tray format, a 20 hour old culture of wt P. aeruginosa was diluted 1000 fold into 100 μL ABtrace media aliquots supplemented with 0.2% glucose, 0.5% Cas amino acids, 1 μM FeCl3, 0.2% DMSO and varying concentrations (100 μM, 50 μM, 25 μM, 12μM, 6 μM or 0 μM) of either H6-335-P1, H6-335, H6-335-SAR compound 26 or H6-335-SAR compound 25. The resulting microtiter trays were sealed with an air permeable lid, and biofilm cultures were grown on a rotary shaker at 37° C. and 160 RPM for 8 hours. After this, culture-supernatants were discarded and the remaining biomass was stained with crystal violet (Groizeleau et al., 2016). Finally, the amount of Crystal violet bound to the biofilm present in each well was plotted as a function of H6-335-P1, H6-335, H6-335-SAR compound 26 and H6-335-SAR compound 25 in the following concentrations: 100 μM, 50 μM, 25 μM, 12 μM, 6 μM or 0 μM (FIG. 4A). Means and standard deviations (bars) in FIG. 4A represents 4 biological replicates (n=4).

wt P. aeruginosa biofilm [4] = experiment: dispersal of 8 hour old biofilm, crystal violet staining; type: cell-based, Pseudomonas aeruginosa
Description: Using a 96 well microtiter tray format, a 20 hour old culture of wt P. aeruginosa was diluted 1000 fold into 100 μL ABtrace media aliquots supplemented with 0.2% glucose, 0.5% Cas amino acids and 1 μM FeCl3. The resulting microtiter trays were sealed with an air permeable lid and the biofilm cultures were incubated at 37° C. on a rotary shaker at 160 RPM.
After this, the culture supernatants were discarded and the remaining biomass was stained with crystal violet (Groizeleau et al. 2016). Finally, the amount of Crystal violet bound to the biofilm present in each well was plotted as a function of H6-335-P1, H6-335, H6-335-SAR compound 26 and H6-335- SAR compound 25 in the following concentrations: 100 μM, 50 μM, 25 μM, 12 μM or 0 μM (FIG. 4D). Means and standard deviations (bars) in FIG. 4D represents 5 biological replicates (n=5)

wt P. aeruginosa biofilm [5] = experiment: time dependent liberation of bacteria from biofilm (CFU); type: cell-based, Pseudomonas aeruginosa; conditions: 25 μM, 18 hours old biofilm, FIG. 4C
Description: In a further experiment (FIG. 4C) the time dependent liberation of wt P. aeruginosa bacteria during H6-335-P1 induced dispersal performed in 48 well trays microtiter trays was determined. After 18 hours of growth in ABtrace media aliquots supplemented with 0.5% glucose, 0.5% Cas amino acids and 1 μM FeCl3 on a rotary shaker, 25 μM H6-335-P1 or 1% DMSO control was added. At the time-points indicated, samples were withdrawn and plated for CFU determinations. Average CFU's per ml for the 1% DMSO controls at each time point are set to 100.

Acinetobacter baumanii = experiment: biofilm formation / dispersal, host range; type: cell-based; conditions: data not shown
Excerpt: (§2) To determine the host range of H6-335-P1, the inventors conducted a Blast search for analogs of the P. aeruginosa BifA phosphodiesterase protein encoded by gene PA4367 (bifA).

Burkholderia cenocepacia = experiment: biofilm formation / dispersal, host range; type: cell-based; conditions: data not shown
Excerpt: as §2

Enterobacter cloacae = experiment: biofilm formation / dispersal, host range; type: cell-based; conditions: data not shown
Excerpt: as §2

[6] = tested on: Stenotrophomonas maltophilia; experiment: biofilm formation / dispersal, host range; type: cell-based; conditions: data not shown
Excerpt: as §2

Structure (SMILES): N=C1NN=C(N)/C1=N/Nc1ccccc1F [H6-335-P1, 4-[(2-fluorophenyl) hydrazinylidene]pyrazole-3,5-diamine]
- reduction of total cellular c-di-GMP content [1]: 90%
- effect on growth (OD600) [2]: does not inhibit growth
- reduction of biofilm formation (wt P. aeruginosa biofilm [3]; 100 μM, compared to untreated (DMSO control)): 98%
- biofilm inhibition (dose-response, words) (wt P. aeruginosa biofilm [3]; 6 to 100 μM, FIG. 4A): distinct concentration dependent biofilm inhibition
- dispersal of an 8 hour old biofilm (wt P. aeruginosa biofilm [4]; 100 μM, within a 2 hours period): 88%
- rank of biofilm dispersing potency among the four tested compounds (wt P. aeruginosa biofilm [4]; 12 to 100 μM, two hours of dispersal, FIG. 4D): most potent biofilm dispersing compound
- dispersal of live bacteria from already formed biofilms (wt P. aeruginosa biofilm [5]): induced dispersal of live bacteria into the growth medium
- biofilm formation of Acinetobacter baumanii (Acinetobacter baumanii): failed to reduce biofilm formation
- biofilm formation of Burkholderia cenocepacia (Burkholderia cenocepacia): failed to reduce biofilm formation
- biofilm formation of Enterobacter cloacae (Enterobacter cloacae): failed to reduce biofilm formation
- biofilm formation of Stenotrophomonas maltophilia [6]: failed to reduce biofilm formation
